In the Kinase Knowledgebase extract (Sharma et al. 2016):

Molecular target: MAPK14 (human) (UniProt Q16539)
Assay: Inhibition of MAPK14 Kinase Activity

Sequence of MAPK14 (human) (Q16539 whole entry, looked up): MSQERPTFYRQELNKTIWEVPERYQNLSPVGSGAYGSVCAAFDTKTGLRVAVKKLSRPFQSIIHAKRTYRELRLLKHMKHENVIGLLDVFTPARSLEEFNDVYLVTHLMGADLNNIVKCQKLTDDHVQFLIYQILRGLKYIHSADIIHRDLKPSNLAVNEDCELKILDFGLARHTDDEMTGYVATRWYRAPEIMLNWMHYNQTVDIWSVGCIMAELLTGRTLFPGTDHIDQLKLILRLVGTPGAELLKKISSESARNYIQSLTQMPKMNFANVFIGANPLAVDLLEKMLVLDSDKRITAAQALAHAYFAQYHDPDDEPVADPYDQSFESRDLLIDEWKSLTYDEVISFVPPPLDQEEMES

IC50, < 2000 nM:
CCN1CC[C@@H](NC(=O)Nc2sc3c(ccc(=O)n3-c3ccccc3)c2C(=O)c2ccc(F)c(C)c2)C1
Nc1sc2c(ccc(=O)n2-c2ccccc2)c1C(=O)c1cccs1
Cc1cc(C(=O)c2c(NC(=O)NCC(C)(C)O)sc3c2ccc(=O)n3CC2CC2)ccc1F
CN1CCC(C(=O)Nc2sc3c(ccc(=O)n3-c3ccccc3)c2C(=O)c2ccccc2)CC1
Cc1cc(C(=O)c2c(N)sc3c2ccc(=O)n3-c2ccccc2F)ccc1F
CC(C)(CO)NC(=O)Nc1sc2c(ccc(=O)n2-c2ccccc2)c1C(=O)c1ccccc1
Cc1ccccc1C(=O)c1c(N)sc2c1ccc(=O)n2-c1ccccc1
Cc1cc(C(=O)c2c(NC(=O)C3CCN(C)CC3)sc3c2ccc(=O)n3-c2c(F)cccc2F)ccc1F
O=C(c1ccccc1)c1c(C(=O)N2CCC[C@H]2CO)sc2c1ccc(=O)n2-c1ccccc1
CN(C)C1CN(c2sc3c(ccc(=O)n3-c3ccccc3)c2C(=O)c2ccccc2)C1
Cc1cccc(C(=O)c2c(NC3CNC3)sc3c2ccc(=O)n3-c2ccccc2)c1
NC(=O)c1sc2c(ccc(=O)n2-c2ccccc2)c1C(=O)c1ccccc1
CC(=O)Nc1sc2c(ccc(=O)n2-c2ccccc2)c1C(=O)c1ccc(C)c(C)c1
O=C(c1ccccc1)c1csc2c1ccc(=O)n2-c1ccccc1
NC1CCN(c2sc3c(ccc(=O)n3-c3ccccc3)c2C(=O)c2ccccc2)CC1
CN1CC[C@H](Nc2sc3c(ccc(=O)n3-c3ccccc3)c2C(=O)c2ccccc2)C1
CC(=O)Nc1sc2c(ccc(=O)n2-c2ccccc2)c1C(=O)c1ccccc1Cl
Cc1cccc(C(=O)c2c(N)sc3c2ccc(=O)n3-c2ccccc2)n1
C=CCNC(=O)Nc1sc2c(ccc(=O)n2-c2ccccc2)c1C(=O)c1cccc(C)c1
CN1CCN(C(=O)Nc2sc3c(ccc(=O)n3-c3ccccc3)c2C(=O)c2ccccc2)CC1
N#Cc1ccc(C(=O)c2c(N)sc3c2ccc(=O)n3-c2ccccc2)cc1
Cc1cccc(C(=O)c2c(NC(=O)N3CCN(C)CC3)sc3c2ccc(=O)n3-c2ccccc2)c1
Nc1sc2c(ccc(=O)n2-c2ccccc2)c1C(=O)c1ccccc1
Cc1cc(C(=O)c2c(N)sc3c2ccc(=O)n3-c2ccccc2Cl)ccc1F
Cc1cc(C(=O)c2c(NC(=O)N3CC[C@@H](N(C)C)C3)sc3c2ccc(=O)n3-c2ccccc2)ccc1F
O=C(c1ccccc1)c1c(NC2CNC2)sc2c1ccc(=O)n2CC1CC1
Cc1ccc(-n2c(=O)ccc3c(C(=O)c4ccccc4)c(N)sc32)cc1
O=C(c1ccccc1)c1c(N2CC[C@@H](O)C2)sc2c1ccc(=O)n2-c1ccccc1
O=C(c1ccccc1)c1c(N[C@@H]2CCNC2)sc2c1ccc(=O)n2-c1ccccc1
CC(=O)Nc1sc2c(ccc(=O)n2-c2ccccc2)c1C(=O)c1cccc(C)n1
Cc1cc(C(=O)c2c(NC3CCNCC3)sc3c2ccc(=O)n3-c2ccccc2)ccc1F
Cc1ccc(-n2c(=O)ccc3c(C(=O)c4ccccc4)c(NC4CNC4)sc32)cc1
CC(=O)Nc1sc2c(ccc(=O)n2-c2ccccc2)c1C(=O)c1cccs1
COc1ccccc1C(=O)c1c(NC(C)=O)sc2c1ccc(=O)n2-c1ccccc1
CC(=O)Nc1sc2c(ccc(=O)n2-c2ccccc2)c1C(=O)c1cccc(C(F)(F)F)c1
CC(=O)Nc1sc2c(ccc(=O)n2-c2ccccc2)c1C(=O)c1ccccc1C
CN1CCC(C(=O)Nc2sc3c(ccc(=O)n3-c3ccccc3Cl)c2C(=O)c2ccccc2)CC1
Nc1sc2c(ccc(=O)n2-c2ccccc2)c1C(=O)c1cccc(Br)c1
CN1CC[C@@H](Nc2sc3c(ccc(=O)n3-c3ccccc3)c2C(=O)c2ccccc2)C1
CCOc1ccc(C(=O)c2c(N)sc3c2ccc(=O)n3-c2ccccc2)cc1C
Cc1cc(C(=O)c2c(NC3CNC3)sc3c2ccc(=O)n3CC2CC2)ccc1F
Cc1cc(C(=O)c2c(N)sc3c2ccc(=O)n3CC2CC2)ccc1F
Cc1cc(C(=O)c2c(NC3CCN(C(C)C)CC3)sc3c2ccc(=O)n3-c2ccccc2)ccc1F
CC(=O)Nc1sc2c(ccc(=O)n2-c2ccccc2)c1C(=O)c1ccccc1
CC(=O)Nc1sc2c(ccc(=O)n2-c2ccccc2)c1C(=O)c1ccccc1C#N
Cc1ccc(-n2c(=O)ccc3c(C(=O)c4ccc(F)c(C)c4)c(N)sc32)cc1
Nc1sc2c(ccc(=O)n2-c2ccccc2)c1C(=O)c1ccc(F)cc1F
CCOC(=O)c1sc2c(ccc(=O)n2-c2ccccc2)c1C(=O)c1ccccc1
NC(=O)c1sc2c(ccc(=O)n2-c2ccccc2)c1C(=O)c1ccc(F)cc1F
Cc1cccc(C(=O)c2c(C(=O)O)sc3c2ccc(=O)n3-c2ccccc2)c1
Cc1cc(C(=O)c2c([N+](=O)[O-])sc3c2ccc(=O)n3-c2ccccc2Cl)ccc1F
COc1ccc(C(=O)c2c(N)sc3c2ccc(=O)n3-c2ccccc2)cc1
CN(C)CC(C)(C)CNc1sc2c(ccc(=O)n2-c2ccccc2)c1C(=O)c1ccccc1
Nc1sc2c(ccc(=O)n2-c2ccc(F)cc2)c1C(=O)c1ccccc1
CN(C)[C@H]1CCN(c2sc3c(ccc(=O)n3-c3ccccc3)c2C(=O)c2ccccc2)C1
Cc1cccc(C(=O)c2c(NC3CCNCC3)sc3c2ccc(=O)n3-c2ccccc2)c1
NC(=O)c1sc2c(ccc(=O)n2-c2ccccc2)c1C(=O)c1cccc(Cl)c1
CNC(=O)CNc1sc2c(ccc(=O)n2-c2ccccc2)c1C(=O)c1ccccc1
O=C(c1ccccc1)c1c(NC(=O)C2CCNCC2)sc2c1ccc(=O)n2CC1CC1
Nc1sc2c(ccc(=O)n2-c2ccccc2)c1C(=O)c1ccccc1F
O=C(c1ccccc1)c1c(NCCN2CCCCC2)sc2c1ccc(=O)n2-c1ccccc1
Nc1sc2c(ccc(=O)n2-c2cccnc2)c1C(=O)c1ccccc1
CCOC(=O)c1sc2c(ccc(=O)n2-c2ccccc2)c1C(=O)c1cccc(Cl)c1
O=C(c1ccccc1)c1c(NC(=O)N2CC[C@@H](O)C2)sc2c1ccc(=O)n2-c1ccccc1
CCN1CCC(Nc2sc3c(ccc(=O)n3-c3ccccc3)c2C(=O)c2ccc(F)c(C)c2)CC1
N#Cc1ccccc1C(=O)c1c(N)sc2c1ccc(=O)n2-c1ccccc1
CC(=O)Nc1sc2c(ccc(=O)n2-c2ccccc2F)c1C(=O)c1ccccc1
COc1ccccc1C(=O)c1c(N)sc2c1ccc(=O)n2-c1ccccc1
Nc1sc2c(ccc(=O)n2-c2ccccc2)c1C(=O)c1cccc(C(F)(F)F)c1
CN1CCC[C@@H]1C(=O)Nc1sc2c(ccc(=O)n2-c2ccccc2)c1C(=O)c1ccccc1
Nc1sc2c(ccc(=O)n2-c2ccccc2)c1C(=O)c1ccc(C(F)(F)F)cc1
CN1CCC(Nc2sc3c(ccc(=O)n3-c3ccccc3)c2C(=O)c2ccccc2)CC1
O=C(c1ccccc1)c1c(NC2CNC2)sc2c1ccc(=O)n2-c1ccccc1
CC(C)N1CCC(Nc2sc3c(ccc(=O)n3-c3ccccc3)c2C(=O)c2ccccc2)C1 (stereo not drawn)
Cc1ccc(-n2c(=O)ccc3c(C(=O)c4ccc(F)c(C)c4)c(NC4CN(C)C4)sc32)cc1
Cc1cccc(C(=O)c2c(NC3CCN(C)CC3)sc3c2ccc(=O)n3-c2ccccc2)c1
CC(C)(O)CNC(=O)Nc1sc2c(ccc(=O)n2-c2ccccc2Cl)c1C(=O)c1ccccc1
CC(C)N1CCC(Nc2sc3c(ccc(=O)n3-c3ccccc3)c2C(=O)c2ccccc2)CC1
CC(C)(CO)NC(=O)c1sc2c(ccc(=O)n2-c2ccccc2)c1C(=O)c1ccccc1
O=C(c1ccccc1)c1c(NC(=O)C2CCNCC2)sc2c1ccc(=O)n2-c1ccccc1
Cc1cc(C(=O)c2c(C(N)=O)sc3c2ccc(=O)n3-c2ccccc2)ccc1F
O=C(c1ccccc1)c1c(C(=O)N2CCC2)sc2c1ccc(=O)n2-c1ccccc1
CN1CCC(Nc2sc3c(ccc(=O)n3-c3ccc(F)cc3)c2C(=O)c2ccccc2)CC1
Cc1cccc(C(=O)c2c(C(N)=O)sc3c2ccc(=O)n3-c2ccccc2)c1
Nc1sc2c(ccc(=O)n2-c2ccccc2F)c1C(=O)c1ccccc1
CC(=O)Nc1sc2c(ccc(=O)n2-c2ccccc2)c1C(=O)c1cccc(OC(F)F)c1
N[C@H]1CCN(C(=O)Nc2sc3c(ccc(=O)n3-c3ccccc3)c2C(=O)c2ccccc2)C1
Nc1sc2c(ccc(=O)n2-c2ccccc2)c1C(=O)c1cccc(OC(F)F)c1
